Consider 13 compounds from patent publication US20230131899A1, “INHIBITORS OF MICROBIALLY INDUCED AMYLOID” (Axial Therapeutics, Inc., priority 2020, published 2023).

One test concerns the target T1, E. coli CsgA (Escherichia coli, UniProt P28307).
T1 construct: made in house; host or cells: E. coli NEB 3016 slyD::kan, pET11d
The experiment in a line: In vitro ThioflavinT assay of CsgA aggregation (CsgA ThT Assay). In kind it is biochemical. The settings on record: for remaining activity at 25 µM: compound 25 μM; for remaining activity at 100 µM: compound 100 μM. In outline:
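Purified C-terminal His-tagged CsgA, monomerised by desalting and 30-kDa filtration, at 2-20 μM with 20-40 μM ThT in 50 mM potassium phosphate pH 7.3, 1% DMSO, compounds 3.125-200 uM; room temperature, fluorescence (ex 438/em 495 nm) read every 15 min. Background-subtracted signal expressed as percent inhibition versus vehicle at 6-6.5 or 8-9 h, or as percent control AUC.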

The subject of test [1] is CsgA gene expression (csgBAC promoter-GFP reporter) in E. coli UTI89. The experiment in a line: In vitro live cell fluorescent reporter assay of CsgA transcription (Reporter Assay). In kind it is cell-based. The conditions noted are these: Escherichia coli. In short, it runs like this:
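Compounds at 0.14–100 μM (1% DMSO final) incubated 20 h at 27 °C in YESCA broth with UTI89 carrying a single-copy GFP reporter under the csgBAC intergenic promoter region, inoculum OD600 0.003. Fluorescence normalized to vehicle wells gave IC50 and 50%-of-vehicle concentration; OD600 reduction >10% flagged growth impact.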

The mark [2] stands for this setting: read-out: CsgA ThT Assay (2 μM CsgA) % Control Bmax 25 μM, activity range, class symbol, CsgA 2 μM, white plates.
Where [3] appears, read: read-out: CsgA ThT Assay (2 μM CsgA) % Control Bmax 25 μM, mean Bmax as percentage of DMSO control, CsgA 2 μM, white plates.
[4] abbreviates: read-out: CsgA ThT Assay (2 μM CsgA) % Control Bmax 100 μM, activity range, class symbol, CsgA 2 μM, white plates.
Setting [5] is: read-out: CsgA ThT Assay (2 μM CsgA) % Control Bmax 100 μM, mean Bmax as percentage of DMSO control, CsgA 2 μM, white plates.
The mark [6] stands for this setting: read-out: Reporter Assay Abs IC50 (μM), median Abs IC50 in the CsgA reporter assay, N/A = maximum expression reduction is <50% of control.
Where [7] appears, read: read-out: Reporter Assay Abs IC50, activity range, class symbol.
Where [8] appears, read: read-out: CsgA ThT Assay (10 μM CsgA) % Control AUC at 1005 minutes, 25 μM (activity range), CsgA 10 μM, black plates, 1005 minutes, class symbol.
Setting [9] is: read-out: CsgA ThT Assay (10 μM CsgA) % Control AUC at 1005 minutes, 25 μM, mean AUC as % of DMSO control, CsgA 10 μM, black plates, 1005 minutes.
Setting [10] is: read-out: CsgA ThT Assay (10 μM CsgA) % Control AUC at 1005 minutes, 100 μM (activity range), CsgA 10 μM, black plates, 1005 minutes, class symbol.
Setting [11] is: read-out: CsgA ThT Assay (10 μM CsgA) % Control AUC at 1005 minutes, 100 μM, mean AUC as % of DMSO control, CsgA 10 μM, black plates, 1005 minutes.
Where [12] appears, read: read-out: Reporter Assay Abs IC50 (activity range), median Abs IC50 in the CsgA reporter assay, class symbol.

Read-outs that look alike come from different tables or passages of the source.

T1 sequence (P28307 23-151): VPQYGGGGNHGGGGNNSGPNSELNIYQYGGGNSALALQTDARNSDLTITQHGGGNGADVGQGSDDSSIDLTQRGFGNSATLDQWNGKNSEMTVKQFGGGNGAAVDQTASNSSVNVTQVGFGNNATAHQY

Consider `CCCN1CC(C(=O)O)n2c(c(-c3cccc(C(F)(F)F)c3)c(Cc3cccc4ccccc34)c(C3CC3)c2=O)S1(=O)=O` (stereo not drawn) [Compound 132, 7-cyclopropyl-8-(naphthalen-1-ylmethyl)-6-oxo-2-propyl-9-(3-(trifluoromethyl)phenyl)-3,4-dihydro-2H,6H-pyrido[1,2-e][1,2,5]thiadiazine-4-carboxylic acid 1,1-dioxide], for which the remaining activity at 25 µM on E. coli CsgA (setting [2]) was above 60%; at E. coli CsgA (setting [3]), 76%. Further, the remaining activity at 100 µM at E. coli CsgA (setting [4]) is above 60%; on E. coli CsgA (setting [5]), 122%. The IC50 in test [1] (setting [6]) was 2.4 µM; in test [1] (setting [7]), 1.3 to 4.5 µM.

Regarding `O=C(O)C1CNS(=O)(=O)c2c(-c3cccc(C(F)(F)F)c3)c(C(F)(F)c3cccc4ccccc34)cc(=O)n21` (stereo not drawn) [Compound 137, 8-(difluoro(naphthalen-1-yl)methyl)-6-oxo-9-(3-(trifluoromethyl)phenyl)-3,4-dihydro-2H,6H-pyrido[1,2-e][1,2,5]thiadiazine-4-carboxylic acid 1,1-dioxide], the remaining activity at 25 µM was above 60% on E. coli CsgA (setting [2]) and 81% on E. coli CsgA (setting [3]). The remaining activity at 100 µM was 31 to 60% on E. coli CsgA (setting [4]) and 50% at E. coli CsgA (setting [5]). Besides, the results for the half-maximal inhibitory concentration (IC50) in test [1] (setting [6]) and in test [1] (setting [7]) were 2.2 µM and 1.3 to 4.5 µM, respectively.

As to `O=C(O)[C@H]1CN(Cc2ccccc2)c2c(-c3cccc(C(F)(F)F)c3)c(Cc3cccc4ccccc34)c(Br)c(=O)n21` (single isomer, unassigned) [Compound 190], the results for the remaining activity at 25 µM at E. coli CsgA (setting [2]) and on E. coli CsgA (setting [3]) were above 60% and 63%, respectively. Moreover, the remaining activity at 100 µM is 31 to 60% on E. coli CsgA (setting [4]) and 56% on E. coli CsgA (setting [5]). The values for the IC50 in test [1] (setting [6]) and in test [1] (setting [7]) were 1.6 µM and 1.3 to 4.5 µM, respectively.

In the case of `CCCN1CC(C(=O)O)n2c(c(-c3cccc(C(F)(F)F)c3)c(Cc3cccc4ccccc34)c(N)c2=O)S1(=O)=O` (stereo not drawn) [Compound 089, 7-amino-8-(naphthalen-1-ylmethyl)-6-oxo-2-propyl-9-(3-(trifluoromethyl)phenyl)-3,4-dihydro-2H,6H-pyrido[1,2-e][1,2,5]thiadiazine-4-carboxylic acid 1,1-dioxide], the remaining activity at 25 µM on E. coli CsgA (setting [8]) was 31 to 60%; on E. coli CsgA (setting [9]), 31%. In addition, the remaining activity at 100 µM was 11 to 31% on E. coli CsgA (setting [10]) and 23% at E. coli CsgA (setting [11]). Moreover, the figures for the IC50 in test [1] (setting [12]) and in test [1] (setting [6]) were 4.6 to 10 µM and 8 µM, respectively.

Turning to `N#Cc1c(Cc2cccc3ccccc23)c(-c2cccc(C(F)(F)F)c2)c2n(c1=O)C(C(=O)O)CN2Cc1ccccc1` (stereo not drawn) [Compound 185, 1-benzyl-6-cyano-7-(naphthalen-1-ylmethyl)-5-oxo-8-(3-(trifluoromethyl)phenyl)-1,2,3,5-tetrahydroimidazo[1,2-a]pyridine-3-carboxylic acid], the remaining activity at 25 µM at E. coli CsgA (setting [2]) is above 60%; on E. coli CsgA (setting [3]) it was 69%. Moreover, the remaining activity at 100 µM on E. coli CsgA (setting [4]) was above 60%; on E. coli CsgA (setting [5]), 91%. In addition, the IC50 in test [1] (setting [6]) was 1.8 µM; in test [1] (setting [7]) it was 1.3 to 4.5 µM.

For the compound `CCc1c(Cc2cccc3ccccc23)c(-c2cccc(C(F)(F)F)c2)c2n(c1=O)C(C(=O)O)CN(CCCCO)S2(=O)=O` (stereo not drawn) [Compound 113, 7-ethyl-2-(4-hydroxybutyl)-8-(naphthalen-1-ylmethyl)-6-oxo-9-(3-(trifluoromethyl)phenyl)-3,4-dihydro-2H,6H-pyrido[1,2-e][1,2,5]thiadiazine-4-carboxylic acid 1,1-dioxide], the remaining activity at 25 µM on E. coli CsgA (setting [8]) is 31 to 60%; on E. coli CsgA (setting [9]), 41%. The values for the remaining activity at 100 µM at E. coli CsgA (setting [10]) and at E. coli CsgA (setting [11]) were 11 to 31% and 24%, respectively. Moreover, the IC50 in test [1] (setting [12]) was 4.6 to 10 µM; in test [1] (setting [6]), 4.6 µM.

Take `CCCN1CC(C(=O)O)n2c(cc(Cc3cccc4ccccc34)c(NC3CCCC3)c2=O)S1(=O)=O` (stereo not drawn) [Compound 006, 7-(cyclopentylamino)-8-(naphthalen-1-ylmethyl)-6-oxo-2-propyl-3,4-dihydro-2H,6H-pyrido[1,2-e][1,2,5]thiadiazine-4-carboxylic acid 1,1-dioxide]: the results for the remaining activity at 25 µM at E. coli CsgA (setting [2]) and on E. coli CsgA (setting [3]) were above 60% and 66%, respectively. Moreover, the remaining activity at 100 µM on E. coli CsgA (setting [4]) was 31 to 60%; at E. coli CsgA (setting [5]), 34%. In addition, the figures for the IC50 in test [1] (setting [6]) and in test [1] (setting [7]) were 70 µM and above 10 µM, respectively.

As for `CCc1c(Cc2cccc3ccccc23)c(-c2cccc(C(F)(F)F)c2)c2n(c1=O)C(C(=O)O)CN(CCCO)S2(=O)=O` (stereo not drawn) [Compound 112, 7-ethyl-2-(3-hydroxypropyl)-8-(naphthalen-1-ylmethyl)-6-oxo-9-(3-(trifluoromethyl)phenyl)-3,4-dihydro-2H,6H-pyrido[1,2-e][1,2,5]thiadiazine-4-carboxylic acid 1,1-dioxide], the remaining activity at 25 µM at E. coli CsgA (setting [8]) is 31 to 60%; on E. coli CsgA (setting [9]) it was 35%. Moreover, the remaining activity at 100 µM was 11 to 31% on E. coli CsgA (setting [10]) and 20% at E. coli CsgA (setting [11]). In addition, the IC50 was 4.6 to 10 µM in test [1] (setting [12]) and 9 µM in test [1] (setting [6]).

Turning to `O=C(O)C1CSc2c(-c3cccc(C(F)(F)F)c3)c(C(F)(F)c3cccc4ccccc34)nc(=O)n21` (stereo not drawn) [Compound 063, 7-(difluoro(naphthalen-1-yl)methyl)-5-oxo-8-(3-(trifluoromethyl)phenyl)-2,3-dihydro-5H-thiazolo[3,2-c]pyrimidine-3-carboxylic acid], the results for the remaining activity at 25 µM on E. coli CsgA (setting [8]) and on E. coli CsgA (setting [9]) were above 60% and 61%, respectively. In addition, the remaining activity at 100 µM on E. coli CsgA (setting [10]) is 11 to 31%; at E. coli CsgA (setting [11]), 21%. Moreover, the IC50 in test [1] (setting [12]) was above 10 µM; in test [1] (setting [6]), 11.2 µM.

Regarding `CCCN1CC(C(=O)O)n2c(c(-c3cccc(C(F)(F)F)c3)c(Cc3cccc4ccccc34)c(CC(C)C)c2=O)S1(=O)=O` (stereo not drawn) [Compound 139, 7-isobutyl-8-(naphthalen-1-ylmethyl)-6-oxo-2-propyl-9-(3-(trifluoromethyl)phenyl)-3,4-dihydro-2H,6H-pyrido[1,2-e][1,2,5]thiadiazine-4-carboxylic acid 1,1-dioxide], the figures for the remaining activity at 25 µM at E. coli CsgA (setting [2]) and at E. coli CsgA (setting [3]) were 31 to 60% and 51%, respectively. In addition, the remaining activity at 100 µM at E. coli CsgA (setting [4]) is 31 to 60%; at E. coli CsgA (setting [5]) it was 35%. For the same compound, the IC50 in test [1] (setting [6]) is 2.5 µM; in test [1] (setting [7]), 1.3 to 4.5 µM.

As to `O=C(O)C1CN(Cc2ccccc2)c2c(-c3cccc(C(F)(F)F)c3)c(Cc3cncc4ccccc34)c(Cl)c(=O)n21` (stereo not drawn) [Compound 210, 1-benzyl-6-chloro-7-(isoquinolin-4-ylmethyl)-5-oxo-8-(3-(trifluoromethyl)phenyl)-1,2,3,5-tetrahydroimidazo[1,2-a]pyridine-3-carboxylic acid], the remaining activity at 25 µM on E. coli CsgA (setting [2]) was above 60%; on E. coli CsgA (setting [3]), 79%. The remaining activity at 100 µM is above 60% at E. coli CsgA (setting [4]) and 61% at E. coli CsgA (setting [5]). Moreover, the IC50 in test [1] (setting [6]) is 2.5 µM; in test [1] (setting [7]), 1.3 to 4.5 µM.

For `CN1CC(C(=O)O)n2c(c(-c3cccc(C(F)(F)F)c3)c(Cc3cccc4ccccc34)c(CO)c2=O)S1(=O)=O` (stereo not drawn) [Compound 077, 7-(hydroxymethyl)-2-methyl-8-(naphthalen-1-ylmethyl)-6-oxo-9-(3-(trifluoromethyl)phenyl)-3,4-dihydro-2H,6H-pyrido[1,2-e][1,2,5]thiadiazine-4-carboxylic acid 1,1-dioxide], the remaining activity at 25 µM on E. coli CsgA (setting [8]) was above 60%; on E. coli CsgA (setting [9]) it was 97%. The remaining activity at 100 µM at E. coli CsgA (setting [10]) was above 60%; on E. coli CsgA (setting [11]), 87%. For the same compound, the values for the IC50 in test [1] (setting [12]) and in test [1] (setting [6]) were above 10 µM and 51.6 µM, respectively.

As to `Nc1c(Cc2cccc3ccccc23)c(-c2cccc(C(F)(F)F)c2)c2n(c1=O)C(C(=O)O)CN(C[C@H](O)CO)S2(=O)=O` (stereo partly drawn) [Compound 095, 7-amino-2-((S)-2,3-dihydroxypropyl)-8-(naphthalen-1-ylmethyl)-6-oxo-9-(3-(trifluoromethyl)phenyl)-3,4-dihydro-2H,6H-pyrido[1,2-e][1,2,5]thiadiazine-4-carboxylic acid 1,1-dioxide], the remaining activity at 25 µM on E. coli CsgA (setting [8]) was above 60%; at E. coli CsgA (setting [9]), 91%. Also, the remaining activity at 100 µM at E. coli CsgA (setting [10]) was above 60%; at E. coli CsgA (setting [11]) it was 70%. Moreover, the IC50 in test [1] (setting [12]) was above 10 µM; in test [1] (setting [6]) it was 25.9 µM.
